Results published in PubChem BioAssay (NCI).
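A five-concentration, 48-hour dose response in 96-well plates underlies each endpoint, interpolated linearly between surrounding concentrations. Here, GI50 denotes the concentration required for 50% inhibition of growth. TGI: total growth inhibition.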

System: SNB-78 CNS
Assay: NCI anticancer screen, dose series, 48 h

Question: With `C=CCc1cc(OC)c2c(c1)C(O)CC(c1ccc(OC)c(OC)c1)O2` (configuration not stated) as the molecule, how does the TGI read?
Answer: > 100 µM

Question: For `N#CC(C#N)=c1ccc(=C2NCC3CCCN23)cc1` (configuration not stated), which TGI is on record?
Answer: > 100 µM

Question: `CCOC(=O)COc1cccc2c1C(=O)CCO2` was tested. Which TGI did it give?
Answer: > 100 µM

Question: For `CSc1ccc(/C=C2\CN(C)C/C(=C\c3ccc(SC)cc3)C2=O)cc1`, which TGI is on record?
Answer: > 100 µM

Question: With `Cc1nc2c(nc1C)C(=O)c1ccccc1C2=O` as the molecule, how does the TGI read?
Answer: > 94.2 µM

Question: Which TGI does the source give for `Nc1ccc(C(=O)N/C(=C\c2ccc3c(c2)OCO3)c2nc3[nH]c(=S)[nH]c(=O)c3[nH]2)cc1` here?
Answer: > 100 µM

Question: With `O=C(N/C(=C\c1cc(Cl)ccc1Cl)c1nc2[nH]c(=S)[nH]c(=O)c2[nH]1)c1ccccc1` as the molecule, how does the TGI read?
Answer: > 100 µM

Question: For `CCN(CC)CC(C(=O)Nc1c(C)cccc1C)/C(C)=N\NC(=O)C[N+](C)(C)C` (configuration not stated), which TGI is on record?
Answer: > 100 µM

Question: For `CC1=C(C(=O)Nc2ccccc2C)C(c2ccco2)C(C(=O)Nc2ccccc2C)=C(C)N1C`, which TGI is on record?
Answer: > 100 µM

Question: `O=[S@@]1Nc2ccc(Br)cc2S1` was tested. Which TGI did it give?
Answer: > 100 µM

Question: `CC(=O)C(CN(C(C)C)C(C)C)C(c1ccccc1)c1c(O)c2ccccc2oc1=O` (configuration not stated) was tested. Which TGI did it give?
Answer: > 100 µM

Question: `COc1ccc2c(c1)C1(C=N2)CCN(C(C)=O)CC1` was tested. Which TGI did it give?
Answer: > 100 µM

Question: `NC(CCc1nc(-c2ccc(Cl)cc2)cs1)C(=O)O` (configuration not stated) was tested. Which TGI did it give?
Answer: > 100 µM

Question: `O=C1NC2(CCCCC2)C2CCCCC(O)C12` (configuration not stated) was tested. Which TGI did it give?
Answer: > 100 µM

Question: With `COc1ccc(-n2/c(=N/C(=S)N(C)C)ss/c2=N\C(=S)N(C)C)cc1` as the molecule, how does the TGI read?
Answer: > 100 µM

Question: Which TGI does the source give for `O=C(O)C(Cc1ccccc1)N1C(=O)N/C(=C\c2ccc(F)cc2)C1=O` (configuration not stated) here?
Answer: > 100 µM

Question: Which TGI does the source give for `CC(=O)N1[C@H](C(=O)O)CS[C@H]1c1ccncc1` here?
Answer: > 100 µM

Question: With `COc1ccc(NC(=O)c2cc(OC)cc(OC)c2)cc1` as the molecule, how does the TGI read?
Answer: 83.3 µM

Question: `CC1(C)OC(=O)C(=Cc2ccc(O)cc2)C(=O)O1` was tested. Which TGI did it give?
Answer: > 100 µM

Question: How did the TGI turn out when `COc1cccc(NC(=O)CC(=O)n2nc(C)c(N=Nc3ccccc3)c2C)c1` was run?
Answer: > 100 µM

Question: Which TGI does the source give for `O=C(O)CCSC(=O)Nc1cccc(F)c1` here?
Answer: > 100 µM

System: PC-3 prostate
Assay: NCI anticancer screen, dose series, 48 h

Question: For `Cc1nc2c(nc1C)C(=O)c1ccccc1C2=O`, which TGI is on record?
Answer: 30.3 µM

Question: With `O=C1c2ccccc2C(=O)c2sc(Nc3cccc(Cl)c3)nc21` as the molecule, how does the GI50 read?
Answer: 1.89 µM

Question: And the TGI?
Answer: 6.75 µM

System: DLD-1 colon
Assay: NCI anticancer screen, dose series, 48 h

Question: For `C=CCc1cc(OC)c2c(c1)C(O)CC(c1ccc(OC)c(OC)c1)O2` (configuration not stated), which TGI is on record?
Answer: > 100 µM

Question: `CC(C)=CCCc1c(C)ccc2c1C(=O)C(=O)C(C(C)C)=C2` was tested. Which TGI did it give?
Answer: 6.51 µM

Question: For `NS(=O)(=O)c1ccccc1C(=O)N/N=C(\c1nc2ccc([N+](=O)[O-])cc2[nH]c1=O)C(O)c1ccc([N+](=O)[O-])cc1` (configuration not stated), which TGI is on record?
Answer: > 100 µM

Question: With `CCOC(=O)COc1cccc2c1C(=O)CCO2` as the molecule, how does the TGI read?
Answer: > 100 µM

Question: With `CSc1ccc(/C=C2\CN(C)C/C(=C\c3ccc(SC)cc3)C2=O)cc1` as the molecule, how does the TGI read?
Answer: > 100 µM

Question: With `Cc1nc2c(nc1C)C(=O)c1ccccc1C2=O` as the molecule, how does the TGI read?
Answer: 47.9 µM

Question: For `Nc1ccc(C(=O)N/C(=C\c2ccc3c(c2)OCO3)c2nc3[nH]c(=S)[nH]c(=O)c3[nH]2)cc1`, which TGI is on record?
Answer: > 100 µM

Question: How did the TGI turn out when `O=C(N/C(=C\c1cc(Cl)ccc1Cl)c1nc2[nH]c(=S)[nH]c(=O)c2[nH]1)c1ccccc1` was run?
Answer: > 64.7 µM

Question: With `CN(CC(=O)O)S(=O)(=O)c1ccc2ccccc2c1` as the molecule, how does the TGI read?
Answer: > 100 µM

Question: `CCN(CC)CC(C(=O)Nc1c(C)cccc1C)/C(C)=N\NC(=O)C[N+](C)(C)C` (configuration not stated) was tested. Which TGI did it give?
Answer: > 100 µM

Question: How did the TGI turn out when `CC1=C(C(=O)Nc2ccccc2C)C(c2ccco2)C(C(=O)Nc2ccccc2C)=C(C)N1C` was run?
Answer: > 100 µM

Question: Which TGI does the source give for `CC(=O)OC(C)C(=O)C1c2cccc(O)c2C(=O)c2c(O)cc(C)cc21` (configuration not stated) here?
Answer: 3.22 µM

Question: How did the TGI turn out when `O=[S@@]1Nc2ccc(Br)cc2S1` was run?
Answer: > 100 µM

Question: For `CC(=O)C(CN(C(C)C)C(C)C)C(c1ccccc1)c1c(O)c2ccccc2oc1=O` (configuration not stated), which TGI is on record?
Answer: > 100 µM

Question: Which TGI does the source give for `COc1ccc2c(c1)C1(C=N2)CCN(C(C)=O)CC1` here?
Answer: > 100 µM

Question: How did the TGI turn out when `NC(CCc1nc(-c2ccc(Cl)cc2)cs1)C(=O)O` (configuration not stated) was run?
Answer: > 100 µM

Question: For `O=C1NC2(CCCCC2)C2CCCCC(O)C12` (configuration not stated), which TGI is on record?
Answer: > 100 µM

Question: How did the TGI turn out when `O=C1c2ccccc2C(=O)c2sc(Nc3cccc(Cl)c3)nc21` was run?
Answer: 3.95 µM

Question: `O=C(O)C(Cc1ccccc1)N1C(=O)N/C(=C\c2ccc(F)cc2)C1=O` (configuration not stated) was tested. Which TGI did it give?
Answer: > 100 µM

Question: `CC(=O)N1[C@H](C(=O)O)CS[C@H]1c1ccncc1` was tested. Which TGI did it give?
Answer: > 100 µM

Question: How did the TGI turn out when `COc1ccc(NC(=O)c2cc(OC)cc(OC)c2)cc1` was run?
Answer: > 100 µM

Question: `COc1cccc(NC(=O)CC(=O)n2nc(C)c(N=Nc3ccccc3)c2C)c1` was tested. Which TGI did it give?
Answer: > 100 µM

Question: Which TGI does the source give for `O=C1C2=C(SCCS2)C(=O)c2ccccc21` here?
Answer: 3.53 µM

System: T-47D breast
Assay: NCI anticancer screen, dose series, 48 h

Question: How did the TGI turn out when `Cc1nc2c(nc1C)C(=O)c1ccccc1C2=O` was run?
Answer: 13.8 µM

Question: Which GI50 does the source give for `O=C1c2ccccc2C(=O)c2sc(Nc3cccc(Cl)c3)nc21` here?
Answer: 1.84 µM

Question: And the TGI?
Answer: 5.98 µM

System: M19-MEL melanoma
Assay: NCI anticancer screen, dose series, 48 h

Question: With `C=CCc1cc(OC)c2c(c1)C(O)CC(c1ccc(OC)c(OC)c1)O2` (configuration not stated) as the molecule, how does the TGI read?
Answer: > 100 µM

Question: Which TGI does the source give for `CC(C)=CCCc1c(C)ccc2c1C(=O)C(=O)C(C(C)C)=C2` here?
Answer: 7.87 µM

Question: `NS(=O)(=O)c1ccccc1C(=O)N/N=C(\c1nc2ccc([N+](=O)[O-])cc2[nH]c1=O)C(O)c1ccc([N+](=O)[O-])cc1` (configuration not stated) was tested. Which TGI did it give?
Answer: > 100 µM

Question: How did the TGI turn out when `N#CC(C#N)=c1ccc(=C2NCC3CCCN23)cc1` (configuration not stated) was run?
Answer: > 100 µM

Question: `CCOC(=O)COc1cccc2c1C(=O)CCO2` was tested. Which TGI did it give?
Answer: > 100 µM

Question: With `CSc1ccc(/C=C2\CN(C)C/C(=C\c3ccc(SC)cc3)C2=O)cc1` as the molecule, how does the TGI read?
Answer: > 100 µM

Question: Which TGI does the source give for `Cc1nc2c(nc1C)C(=O)c1ccccc1C2=O` here?
Answer: 1.07 µM

Question: For `Nc1ccc(C(=O)N/C(=C\c2ccc3c(c2)OCO3)c2nc3[nH]c(=S)[nH]c(=O)c3[nH]2)cc1`, which TGI is on record?
Answer: > 100 µM

Question: With `O=C(N/C(=C\c1cc(Cl)ccc1Cl)c1nc2[nH]c(=S)[nH]c(=O)c2[nH]1)c1ccccc1` as the molecule, how does the TGI read?
Answer: > 68.6 µM

Question: `CN(CC(=O)O)S(=O)(=O)c1ccc2ccccc2c1` was tested. Which TGI did it give?
Answer: > 100 µM

Question: For `CCN(CC)CC(C(=O)Nc1c(C)cccc1C)/C(C)=N\NC(=O)C[N+](C)(C)C` (configuration not stated), which TGI is on record?
Answer: > 100 µM

Question: With `CC1=C(C(=O)Nc2ccccc2C)C(c2ccco2)C(C(=O)Nc2ccccc2C)=C(C)N1C` as the molecule, how does the TGI read?
Answer: > 100 µM

Question: Which TGI does the source give for `CC(=O)OC(C)C(=O)C1c2cccc(O)c2C(=O)c2c(O)cc(C)cc21` (configuration not stated) here?
Answer: 1.23 µM

Question: `O=[S@@]1Nc2ccc(Br)cc2S1` was tested. Which TGI did it give?
Answer: > 100 µM

Question: `CC(=O)C(CN(C(C)C)C(C)C)C(c1ccccc1)c1c(O)c2ccccc2oc1=O` (configuration not stated) was tested. Which TGI did it give?
Answer: > 100 µM

Question: `COc1ccc2c(c1)C1(C=N2)CCN(C(C)=O)CC1` was tested. Which TGI did it give?
Answer: > 100 µM

Question: How did the TGI turn out when `NC(CCc1nc(-c2ccc(Cl)cc2)cs1)C(=O)O` (configuration not stated) was run?
Answer: > 100 µM

Question: How did the TGI turn out when `O=C1NC2(CCCCC2)C2CCCCC(O)C12` (configuration not stated) was run?
Answer: > 100 µM

Question: Which TGI does the source give for `COc1ccc(-n2/c(=N/C(=S)N(C)C)ss/c2=N\C(=S)N(C)C)cc1` here?
Answer: > 100 µM

Question: With `O=C1c2ccccc2C(=O)c2sc(Nc3cccc(Cl)c3)nc21` as the molecule, how does the TGI read?
Answer: 0.89 µM

Question: `O=C(O)C(Cc1ccccc1)N1C(=O)N/C(=C\c2ccc(F)cc2)C1=O` (configuration not stated) was tested. Which TGI did it give?
Answer: > 100 µM

Question: For `CC(=O)N1[C@H](C(=O)O)CS[C@H]1c1ccncc1`, which TGI is on record?
Answer: > 100 µM
